Test results: patent publication US7547676B2, “Antagonist peptides to the C5A chemotactic function of vitamin D binding protein” (The Research Foundation of State University of New York, priority 2004, dated 2009)

Experiments:
[1] = test system: neutrophils; test: Neutrophil chemotaxis assay, C5a co-chemotactic activity of DBP; assay type: cell-based, human; set-up: effect on co-chemotactic activity of DBP, dose-response: dose or concentration left out as unconfirmed
Text: Isolation of human neutrophils Neutrophils, serum, and plasma were isolated from the venous blood of healthy, medication-free, paid volunteers who gave informed consent. The Institutional Review Board of Stony Brook University approved this procedure. These procedures have been described in detail previously (Kew et al., 1995a).
Neutrophil chemotaxis assay Cell movement was quantitated using a 48 well microchemotaxis chamber (Neuroprobe, Cabin John, Md.) and 5.0 μm pore size cellulose nitrate filters (purchased from Neuroprobe) as previously described (Kew et al., 1995a). Cell suspensions and chemotactic factors were prepared and/or diluted in the chemotaxis assay buffer (Hank's balanced salt solution supplemented with 10 mM HEPES (pH 7.4) and 1% bovine serum albumin). Cell movement was quantitated microscopically by measuring the distance in microns (μm) that the leading front of cells had migrated into the filter according to the method described by Zigmond and Hirsch (1973). In each experiment, five fields per duplicate filter were measured at 400× magnification.

[2] = molecular target: T1, DBP (Homo sapiens, UniProt P02774); settings: Cooke and Haddad, 1989; cited from earlier work
T1 sequence (P02774 17-474): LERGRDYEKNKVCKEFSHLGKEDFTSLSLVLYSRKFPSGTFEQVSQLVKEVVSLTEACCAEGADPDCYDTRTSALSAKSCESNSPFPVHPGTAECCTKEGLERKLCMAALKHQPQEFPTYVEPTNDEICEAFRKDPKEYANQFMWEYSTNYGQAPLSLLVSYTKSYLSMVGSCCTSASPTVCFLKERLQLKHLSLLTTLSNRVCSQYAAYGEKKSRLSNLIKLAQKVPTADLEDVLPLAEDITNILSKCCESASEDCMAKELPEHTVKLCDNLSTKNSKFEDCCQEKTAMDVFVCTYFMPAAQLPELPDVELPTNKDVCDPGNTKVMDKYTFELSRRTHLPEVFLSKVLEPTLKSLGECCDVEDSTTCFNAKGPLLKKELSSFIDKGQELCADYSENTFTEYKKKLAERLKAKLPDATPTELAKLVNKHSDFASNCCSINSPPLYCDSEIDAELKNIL

[3] = test system: Alkaline phosphatase activity on the plasma membrane of viable neutrophils; test: Neutrophil alkaline phosphatase assay (DiFMUP); assay type: cell-based, human; settings: 5×10^6 cells pretreated with 10 nM 1,25(OH)2D3 or 10 μM SOV; untreated 11,107±1335 units
Method: Neutrophil alkaline phosphatase assay Alkaline phosphatase activity on the plasma membrane of viable neutrophils was measured using the fluorescent substrate 6,8-difluoro-4-methylumbelliferyl phosphate (DiFMUP) and the EnzChek Phosphatase Assay Kit (Molecular Probes, Eugene, Oreg.). Neutrophils (5×10^6 cells) were suspended in 50 μl of 0.1M sodium acetate (pH 5.0) and were immediately added to microtiter plates containing 50 μl of 0.2mM DiFMUP substrate and incubated for 5 min at 22° C. in the dark. A standard curve was generated using known amounts of the fluorescent compound 6,8-difluoro-7-hydroxy-4-methylcoumarin. Fluorescence was measured at 358 nm excitation and 455 nm emission using a SpectraMax M2 microtiter plate reader (Molecular Devices, Sunnydale, Calif.).

[4] = test system: neutrophils; test: Neutrophil viability; assay type: cell-based, human; settings: 10 μM SOV

Row | SMILES | effect on co-chemotactic activity of DBP, dose-response ([1]; bound to DBP) | effect on co-chemotactic activity of DBP (neutrophil chemotaxis toward C5a) ([1]; ligand bound to DBP, 1,25(OH)2D3 100 nM) | affinity for DBP relative to 1,25(OH)2D3 [2] [fold] | cells ability to migrate towards C5a plus DBP ([1]; SOV alone) | reversal of the inhibitory effect of 1,25(OH)2D3 on the C5a co-chemotactic activity of DBP ([1]; neutrophils pretreated with 10 μM SOV) | neutrophil AP activity [3] [units] | cell viability [4]
1 | C=C1CC[C@H](O)C/C1=C/C=C1\CCC[C@]2(C)[C@@H]([C@H](C)CCCC(C)(C)O)CC[C@@H]12 [25(OH)D3] | no effect on co-chemotactic activity | did not alter its ability to enhance neutrophil chemotaxis toward C5a | 10 |  |  |  | 
2 | [Na+].[Na+].[Na+].[O]=[V]([O-])([O-])[O-] [SOV, sodium orthovanadate] |  |  |  | no effect | completely reverses the inhibitory effect | 667±111 | did not alter cell viability
